This is an account of results in US12433872B2, “Treatment of Acanthamoeba or Balamuthia trophozoites and/or cysts” (GEORGIA STATE UNIVERSITY RESEARCH FOUNDATION, INC., priority 2018, dated 2025).

Type in all cases: cell-based
In test [1] the test system is Acanthamoeba castellanii trophozoites. Description: Activity against Acanthamoeba castellanii trophozoites. As for the experimental part: Two Acanthamoeba species (Acanthamoeba castellanii—ATCC50370 and Acanthamoeba culbertsoni—ATCC30171) were bought from the American Type Culture Collection (ATCC) and one species (Acanthamoeba healyi) was donated from the Centers for Disease Control and Prevention (CDC) for our experimentations. Trophozoites were thawed and grown in 10 mL of a nutrient rich Peptose-Glucose (PG) media. The PG media composition is 83.26 mM Glucose (15 g/L), Protease Peptone (15 g/L, yeast extract is manufactured under controlled conditions to retain its vitamin content and other nutritive values such as free amino acids, no other composition information given), 2.2 mM KH2PO4 (300 mg/L), 2.97 μM Thiamine (1 mg/L), 99.86 μM L-methionine (14.9 mg/L), 4.6 μM Vitamin B12 (83.3 μl of 0.1 mg/mL stock/L) and 68 μM Biotin (83.3 μl of 0.2 mg/mL stock/L). […] One mL/L of the salt solution was added to the media stock prior to autoclaving. All reagents were purchased from Sigma Aldrich except the Glucose which was purchased from Alfa Aesar. The cell pellet was resuspended in a final volume of 10 mL of PG media, cultured in 75 cm^2 coming tissue culture flasks and incubated at 27° C. PG was supplemented with 125 μg of penicillin/streptomycin. Sub-culturing occurred twice per week to allow the continued growth and development of the Acanthamoeba trophozoites. […]

For a further test, the system named is A549 cells. The test is described as follows: Toxicity to human A549 cells.
Test [2] deals with Acanthamoeba castellanii (ATCC50370) cysts. The test is described as follows: Encystation drug susceptibility / excystation viability assay, 30 day recovery, A. castellanii cysts. The following applies: ATCC50370, 720 h, read-out: A. castellanii 30 day MCC. As for the experimental part: (§1) The trophozoites of Acanthamoeba were harvested by mechanical detachment and collected via centrifugation at 4000 rpm at 4° C. for 5 minutes. The trophozoites were washed in 10 mL of Neff's Encystment Media (NEM). NEM composition is 20 mM Tris-HCL [pH 8.8] (2.43 g/L), 100 mM KCL (7.46 g/L), 8 mM MgSO4 (962.96 mg/L), 0.4 mM CaCL2 58.81 mg/L) and 1 mM NaHCO3 (84.01 mg/L) (Neff et al. 1964). All reagents were bought from Sigma Aldrich. Centrifugation of the trophozoites was repeated to ensure any residual growth medium was removed. The pellet was resuspended in a final volume of 15 mL of NEM, cultured in 75 cm^2 corning tissue culture flasks and incubated vertically in a thermal shaker, shaken at 100 rpm at 37° C. for 72 hours to produce fully matured cysts. NEM was supplemented with 250 μg of penicillin/streptomycin. Fresh cysts were produced each time for any experimentation.
(§2) At 72 hours the cysts were harvested using a cell scraper and collected via centrifugation at 4000 rpm at 25° C. for 10 minutes. The cells were washed twice in 10 mL of HyClone™ water, Molecular Biology Grade, and centrifugation was repeated to ensure the removal of any residual NEM. The cell suspension was washed with 0.5% sodium dodecyl sulphate (SDS) to remove any remaining trophozoites and immature cysts. The fully mature cysts were further washed twice with 10 mL of HyClone™ water and 1% NEM, centrifugation was repeated to remove any residue of SDS. The concentration of mature cysts was determined using a haemocytometer and adjusted to 1×10^4 cysts/mL in NEM.
(§3) All test compounds were prepared as 5 mg/mL stock solutions in dimethylsulfoxide (DMSO). All compounds were diluted in NEM, serially diluted in 2-fold dilutions 6 or 11 times, yielding a screening concentration range of 1.56 μg/mL to 50 μg/mL or 48 ng/mL to 50 μg/mL with a final highest screening concentration of 1% DMSO.
(§4) Based on this, a strain specific test period and also a 30 day non-specific recovery time were considered. For the 30 day recovery period, the media was changed 5 times to ensure the contents of wells dis not evaporate and have an effect within the results of the assay.
(§5) 90 μL of 1×10^4 Cysts/ml and 10 μL of experimental compounds from the screening plates were produced according to the protocols above and combined into a Corning clear 96 well treated tissue culture plate. Control wells include cysts in non-drug treated, 1% DMSO, NEM (to be used for negative growth control), NEM Blank, PG blank and cysts in non-drug treated, 1% DMSO, PG (to excyst cells and to be used for positive growth control). The total well volume for all wells was 100 μL. The drug exposed plates were screened at 27° C. for 6 or 24 hours only. At the exposure time point the plates were centrifuged at 4000 rpm at 25° C. for 10 minutes and washed twice with phosphate-buffered saline (PBS) to remove any residual experimental compound.
(§6) Once the plate(s) underwent the Encystation drug susceptibility process, all wells except the negative growth control and NEM blank wells received PG growth medium. All plates were left to recover at 27° C. for the strain specific time period of 5, 9 or 11 days depending on the species of Acanthamoeba. At each of the strain specific time points the plates were removed from incubation and microscopically analysed (qualitatively) for the excystation process for the emergence of excysted viable trophozoites or residual cysts. The presence of excysted trophozoites indicated viable amoebae (non-cystistatic or cysticidal—no effect) and the absence of excystation was considered as cystistatic/cysticidal effects.

Test [3] relates to Acanthamoeba healyi cysts. The test is described as follows: Encystation drug susceptibility / excystation viability assay, 30 day recovery, A. healyi cysts. The following applies: 720 h, read-out: A. healyi 30 day MCC. As for the experimental part:
as §1, §2, §3, §4, §5, §6

For test [4], the system named is Acanthamoeba culbertsoni (ATCC30171) cysts. The test is described as follows: Encystation drug susceptibility / excystation viability assay, 30 day recovery, A. culbertsoni cysts. The following applies: ATCC30171, 720 h, read-out: A. culbertsoni 30 day MCC. As for the experimental part:
as §1, §2, §3, §4, §5, §6

For test [5], the system named is Balamuthia mandrillaris trophozoites. The test is described as follows: Activity against Balamuthia mandrillaris trophozoites. The protocol:
Balamuthia mandrillaris trophozoites were thawed and grown in 10 ml of BM-3 medium. […] After autoclaving, complete BM-3 media was produced by the addition of 10% fetal bovine serum and 125 μg of penicillin/streptomycin antibiotics. The table describes all of the compounds and the activity against Balamuthia trophozoites compared to the activity for select Acanthamoeba trophozoites shown in Table 5.

Setting [6] is: trophozoites, n = 2, Table 6, read-out: Acanthamoeba castellanii IC50.
[7] abbreviates: human A549 cells, read-out: A549 cell IC50.
[8] abbreviates: minimum cysticidal concentration, no recovery up to 30 days.
The mark [9] stands for this setting: B. mandrillaris, versus pentamidine 29.38 μM.
[10] abbreviates: Balamuthia mandrillaris; trophozoites, n = 2; read-out: Balamuthia mandrillaris IC50.
Setting [11] is: read-out: A. cactellanii Trophozoite IC50.
Setting [12] is: read-out: Acanthamoeba castellanii IC50.
The mark [13] stands for this setting: Homo sapiens, A549, read-out: A549 cell IC50.
Setting [14] is: Balamuthia mandrillaris, read-out: Balamuthia mandrillaris IC50.

By IC50 is commonly meant the midpoint of a concentration-inhibition curve.

Read-outs that look alike come from different tables or passages of the source.

Regarding `CC(C)NC(=N)c1ccc2nc(-c3ccc(Oc4ccc(-c5nc6ccc(C(=N)NC(C)C)cc6[nH]5)cc4F)cc3)[nH]c2c1` [Compound I, 2-(3-Fluoro-4-(4-(6-(N-isopropylcarbamimidoyl)-1H-benzo[d]imidazol-2-yl)phenoxy)phenyl)-N-isopropyl-1H-benzo[d]imidazole-6-carboximidamide], the half-maximal inhibitory concentration (IC50) in test [1] (setting [6]) stood at 710 nM; in the test on A549 cells (setting [7]), 3460 nM; in test [5] (Balamuthia mandrillaris; read-out: IC50 against B. mandrillaris), 50 nM; in test [5] (setting [10]), 50 nM. Also, the results for the MCC in test [2] (setting [8]), in test [3] (setting [8]) and in test [4] (setting [8]) were 4.2 µM, 4.2 µM and 8.41 µM, respectively. The “times more potent than pentamide as reported in Schuster et al.” value in test [5] (setting [9]) is 587.6.

As to `CC(C)NC(=N)c1ccc2nc(-c3cc(F)c(Oc4ccc(-c5nc6ccc(C(=N)NC(C)C)cc6[nH]5)c(F)c4)c(F)c3)[nH]c2c1` [Compound C, 2-(3,5-Difluoro-4-(3-fluoro-4-(6-(N-isopropylcarbamimidoyl)-1H-benzo[d]imidazol-2-yl)phenoxy)phenyl)-N-isopropyl-1H-benzo[d]imidazole-6-carboximidamide], the IC50 in test [1] (setting [11]) is 1220 nM; in test [1] (setting [12]) it was 1220 nM; in the test with A549 cells (setting [13]) it was 34800 nM; in test [5] (setting [14]), 490 nM. For the same molecule, the MCC in test [2] amounted to 23.1 µM; in test [3] it was 23.1 µM; in test [4], 11.6 µM.

Take `CC(C)NC(=N)c1ccc2nc(-c3cc(F)c(Oc4ccc(-c5nc6ccc(C(=N)NC(C)C)cc6[nH]5)c(Cl)c4)c(F)c3)[nH]c2c1` [Compound B, 2-(2-Chloro-4-(2,6-difluoro-4-(6-(N-isopropylcarbamimidoyl)-1H-benzo[d]imidazol-2-yl)phenoxy)phenyl)-N-isopropyl-1H-benzo[d]imidazole-6-carboximidamide]: the IC50 came to 540 nM in test [1] (setting [11]), 540 nM in test [1] (setting [12]), 17100 nM in the test with A549 cells (setting [13]) and 400 nM in test [5] (setting [14]). Also, the MCC in test [2] stood at 9.6 µM; in test [3], 3.84 µM; in test [4], 2.88 µM.

For the molecule `CC(C)NC(=N)c1ccc2nc(-c3ccc(Oc4ccc(-c5nc6ccc(C(=N)NC(C)C)cc6[nH]5)c(Br)c4)cc3F)[nH]c2c1` [Compound E, 2-(2-Bromo-4-(3-fluoro-4-(6-(N-isopropylcarbamimidoyl)-1H-benzo[d]imidazol-2-yl)phenoxy)phenyl)-N-isopropyl-1H-benzo[d]imidazole-6-carboximidamide], the IC50 in test [1] (setting [11]) was 220 nM; in test [1] (setting [12]), 770 nM; in the test on A549 cells (setting [13]) it was 3790 nM; in test [5] (setting [14]), 110 nM. Moreover, the MCC in test [2] was found to be 2.75 µM; in test [3], 1.83 µM; in test [4] it was 1.83 µM.

`CC(C)NC(=N)c1ccc2nc(-c3ccc(Oc4ccc(-c5nc6ccc(C(=N)NC(C)C)cc6[nH]5)cc4Cl)c(Cl)c3)[nH]c2c1` [P, 2,2′-(Oxybis(3-chloro-4,1-phenylene))bis(N-isopropyl-1H-benzo[d]imidazole-6-carboximidamide)]: the IC50 stood at 810 nM in test [1] (setting [6]), 4910 nM in the test on A549 cells (setting [7]) and 180 nM in test [5] (setting [10]). Moreover, the results for the MCC in test [2] (setting [8]), in test [3] (setting [8]) and in test [4] (setting [8]) were 18 µM, 9.99 µM and 20 µM, respectively.

For the molecule `COc1cc(Oc2c(F)cc(-c3nc4ccc(C(=N)NC(C)C)cc4[nH]3)cc2F)ccc1-c1nc2ccc(C(=N)NC(C)C)cc2[nH]1` [Compound A, 2-(3,5-Difluoro-4-(4-(6-(N-isopropylcarbamimidoyl)-1H-benzo[d]imidazol-2-yl)-3-methoxyphenoxy)phenyl)-N-isopropyl-1H-benzo[d]imidazole-6-carboximidamide], the half-maximal inhibitory concentration (IC50) amounted to 1190 nM in test [1] (setting [11]); 1190 nM in test [1] (setting [12]); 32700 nM in the test with A549 cells (setting [13]); 600 nM in test [5] (setting [14]); 600 nM in test [5] (Balamuthia mandrillaris, read-out: IC50 against B. mandrillaris). Also, the MCC worked out at 47.4 µM in test [2], 7.9 µM in test [3] and 7.9 µM in test [4]. The “times more potent than pentamide as reported in Schuster et al.” value in test [5] (setting [9]) came out at 48.9.

On to `CC(C)NC(=N)c1ccc2nc(-c3ccc(Oc4ccc(-c5nc6ccc(C(=N)NC(C)C)cc6[nH]5)c(Br)c4)c(F)c3)[nH]c2c1` [Q, 2-(2-Bromo-4-(2-fluoro-4-(6-(N-isopropylcarbamimidoyl)-1H-benzo[d]imidazol-2-yl)phenoxy)phenyl)-N-isopropyl-1H-benzo[d]imidazole-6-carboximidamide], for which the IC50 in test [1] (setting [6]) worked out at 410 nM; in the test with A549 cells (setting [7]) it was 3510 nM; in test [5] (setting [10]) it was 100 nM. Further, the MCC in test [2] (setting [8]) came to 3.6 µM; in test [3] (setting [8]), 3.6 µM; in test [4] (setting [8]), 2.7 µM.

`COc1cc(Oc2ccc(-c3nc4ccc(C(=N)NC(C)C)cc4[nH]3)c(Cl)c2)ccc1-c1nc2ccc(C(=N)NC(C)C)cc2[nH]1` [Compound S]: the IC50 was 2790 nM in test [1] (setting [6]), 2950 nM with A549 cells (setting [7]) and 60 nM in test [5] (setting [10]). In addition, the MCC in test [2] (setting [8]) was 2.81 µM; in test [3] (setting [8]), 1.87 µM; in test [4] (setting [8]), 0.93 µM.

Take `COc1cc(-c2nc3ccc(C(=N)NC(C)C)cc3[nH]2)ccc1Oc1ccc(-c2nc3ccc(C(=N)NC(C)C)cc3[nH]2)cc1F` [J, 2-(3-Fluoro-4-(4-(6-(N-isopropylcarbamimidoyl)-1H-benzo[d]imidazol-2-yl)-2-methoxyphenoxy)phenyl)-N-isopropyl-1H-benzo[d]imidazole-6-carboximidamide]: the IC50 stood at 950 nM in test [1] (setting [6]), 4030 nM in the test on A549 cells (setting [7]) and 80 nM in test [5] (setting [10]). Moreover, the values for the MCC in test [2] (setting [8]), in test [3] (setting [8]) and in test [4] (setting [8]) were 11.2 µM, 9.34 µM and 7.47 µM, respectively.
